Test results reported in US20080206181A1, “Hair treatment compositions containing sophora alkaloids” (Conopco Inc, d/b/a UNILEVER, priority 2007, published 2008).
Marks after values point to notes of the source that are not given here.

Key:
[1] = Differential scanning calorimetry (DSC) of bleach-damaged hair fibres; conditions: for Average Denaturation Temperature Td / Sub From damaged (Td increase over damaged hair): bleached hair immersed in 1% aqueous solution at pH 5.5 for 1 hour; for Repair of damage caused by bleaching hair fibre (in words): summary of Table 2
Description: To prepare damaged hair fibre, European hair fibres were bleached with L' Oreal Platifiz precision powder and Oxydant crème (1:1.5) for 30 min, rinsed completely with running tap water and naturally dried overnight before the next application. These hair fibres were immersed in a 1% aqueous solution of test material (matrine or oxymatrine respectively) and water (as a control) at pH 5.5 (adjusted with HCl and NaOH) for 1 hour respectively, rinsed with distilled water for 30 sec and naturally dried overnight and then they were cut into ˜2 mm lengths with scissors.
For the DSC investigation a Mettler Toledo DSC823e analyser was used. About 6 mg of sample was weighed into a pressure resistant (20 bar), stainless steel, large volume pan (120 μl capacity). 50 μl of water was added and the pan was sealed. Samples were then mixed using a rotary mixer and left overnight to allow the water to equilibrate throughout the sample. Samples were run through a temperature programme of […] at a rate of 10° C./min in 30 ml/min nitrogen atmosphere. The helix transition temperature was collected and analyzed with one-way ANOVA. Each sample was carried out three times.

[2] = Protein leaching from hair fibres (BCA protein assay kit); conditions: for Protein leaching from hair fibres, Average: 1% test material + 2% SDS, pH about 6.0, 10 mg hair fibres, 37° C., 24 h; for Effect on protein leaching induced by SDS (in words): summary of Table 1
Description: Protein leaching assays were conducted in order to find out the protective effect of test materials on protein leaching from hair.
Chinese hair fibres from the same head were washed with shampoo and air dried. Then they were immersed in ether for 2 min to remove lipid components and rinsed with running water and air. The hair fibres were cut into ˜2 mm length with scissors.
A 200 μL solution consisting of 1% test material (matrine or oxymatrine respectively) and 2% sodium dodecyl sulphate (SDS), where pH was adjusted to about 6.0 with citric acid, was incubated with 10 mg hair fibres at 37° C. for 24 h.
Protein leaching from the treated hair fibres was determined with a BCA protein assay kit.
The data were collected and analysed with One-Way ANOVA by using SPSS software. LSD was used when variances were equal, and Tamhane's T2 was used when variances were not equal.

## O=C1CCC[C@@H]2[C@H]3CCC[N+]4([O-])CCC[C@@H](CN12)[C@@H]34 (single isomer, unassigned; (+)) [Oxymatrine, (+)-oxymatrine]
[1]; 1st run
  Average Denaturation Temperature Td: 152.24** ° C.
  Sub From damaged (Td increase over damaged hair): 9.68 °C
[1]; 1st run, listed as oxymatrine
  Average Denaturation Temperature Td: 152.24 °C
[1]; 2nd run
  Average Denaturation Temperature Td: 150.67** ° C.
  Sub From damaged (Td increase over damaged hair): 7.49
[1]
  Repair of damage caused by bleaching hair fibre (in words): fully repair the damage
[2]; 1st Run
  Protein leaching from hair fibres, Average: 0.854** μg/mg
[2]; 2nd Run
  Protein leaching from hair fibres, Average: 1.035** μg/mg
[2]
  Effect on protein leaching induced by SDS (in words): reduce protein leaching

## O=C(O)CC(O)(CC(=O)O)C(=O)O [Citric acid]
[2]; 2nd Run
  Protein leaching from hair fibres, Average: 1.121 µg/mg

## O=C1CCC[C@@H]2[C@H]3CCCN4CCC[C@@H](CN12)[C@@H]34 [Matrine, (+)-matrine]
[1]; 1st run
  Average Denaturation Temperature Td: 148.00** ° C.
  Sub From damaged (Td increase over damaged hair): 5.43 °C
[1]; 1st run, listed as matrine
  Average Denaturation Temperature Td: 148 °C
[1]; 2nd run
  Average Denaturation Temperature Td: 148.07** ° C.
  Sub From damaged (Td increase over damaged hair): 4.89
[1]
  Repair of damage caused by bleaching hair fibre (in words): fully repair the damage
[2]; 1st Run
  Protein leaching from hair fibres, Average: 0.792** μg/mg
[2]; 2nd Run
  Protein leaching from hair fibres, Average: 1.105* μg/mg
[2]
  Effect on protein leaching induced by SDS (in words): reduce protein leaching
